Test results taken from patent publication US20230263757A1, “DISINFECTING WIPE KIT FOR CENTRAL VENOUS ACCESS DEVICES” (SterileCare Inc., priority 2022, published 2023).
Where a name gives a salt, the structure may show the parent alone.

Assays:
[1] = test system: MRSA ON184; test: Checkerboard titration, FICI; format: cell-based, S. aureus; conditions: for concentration in combination: EDTA + ethanol
Experimental: (§1) A fourth composition and solution included tetrasodium EDTA with ethanol or chlorhexidine HCl. This fourth composition and solution were created using checkerboard titration methods using micro broth dilution in 96-well microtiter plates. The concentrations of antimicrobials used were based on previously determined MIC values. Briefly, 200 μL, of two-fold dilutions of tetrasodium EDTA and ethanol or chlorhexidine HCl were prepared in MH or MH II broth with standardized cell suspension. […] Microtiter plates were incubated at 37° C. for 24 h, and the results were analyzed. Each test was performed in duplicate and included a growth control without adding any antimicrobials.

[2] = test system: Candida albicans SK4b; test: MBC/MFC determination; format: cell-based; conditions: alone
Experimental: (§2) An assay was made using a minimum inhibitory concentration (MIC) and minimum bactericidal concentration (MBC) and minimum fungicidal concentration (MFC) determination. The MIC was determined by the micro broth dilution method in 96-well plates. Serial two-fold dilutions of tetrasodium EDTA (from 2% to 0.015%), ethanol (from 50% to 0.1%) and chlorhexidine HCl (from 100 μg/mL to 0.025 μg/mL) were prepared in MH broth with a final volume of 90 μL per well. A 10 μL containing 1×10^5 bacterial cells or 2×10^3 fungal cells were added to each well. The inoculated plates were covered with a lid, sealed with Parafilm, and incubated for 24 h at 37° C. with slight rocking on a tilting platform shaker. After incubation, the optical density at 600 nm (OD 600) of the cultures in each well was measured using an xMark™ Microplate Absorbance Spectrophotometer (Bio-Rad). […] MBCs and MFCs were determined by transferring 100 μL from each well with no apparent growth onto appropriate agar plates, followed by incubation for 24 h at 37° C.

[3] = test system: Escherichia coli ON29; test: MBC/MFC determination; format: cell-based; conditions: alone
Experimental: as §2

[4] = test system: Proteus mirabilis ON153; test: MBC/MFC determination; format: cell-based; conditions: alone
Experimental: as §2

[5] = test system: Pseudomonas aeruginosa SK1; test: MBC/MFC determination; format: cell-based; conditions: alone
Experimental: as §2

[6] = test system: Serratia marcescens SK2; test: MBC/MFC determination; format: cell-based; conditions: alone
Experimental: as §2

[7] = test system: Staphylococcus aureus ON89; test: MBC/MFC determination; format: cell-based; conditions: alone
Experimental: as §2

[8] = test system: Staphylococcus epidermidis ON170; test: MBC/MFC determination; format: cell-based; conditions: alone
Experimental: as §2

[9] = test system: Stenotrophomonas maltophilia ON17; test: MBC/MFC determination; format: cell-based; conditions: alone
Experimental: as §2

[10] = test system: C. albicans ON47; test: Checkerboard, FMCI; format: cell-based, Candida albicans; conditions: for microbicidal concentration in combination: EDTA + ethanol
Experimental: as §2, §1

[11] = test system: Candida albicans SK4b; test: MBEC assay, 48-h biofilm, 24 h exposure; format: cell-based
Experimental: (§3) A biofilm cultivation cell composition was provided. This fifth composition was created using an MBEC Assay® biofilm inoculator, consisting of a polystyrene lid with 96 downward-protruding pegs and a corresponding base used to grow biofilms. A standardized inoculum was diluted in an appropriate biofilm growth medium to achieve a viable cell count of 1.5×10^6 CFU/mL of bacterial cells or 5×10^5 CFU/mL of fungal cells. Then, 150 μL of this inoculum was transferred into each appropriate well, and the peg lids were inserted into the microtiter plates. The plates were sealed with Parafilm and were incubated at optimum temperature for 48 h with slight rocking for bacteria and shaking at 200 rpm for fungal strains. After incubation, the peg lid was removed from the base and rinsed twice with sterile phosphate-buffered saline (PBS) for 2 min to remove loosely attached non-sessile cells. Before the antimicrobial challenge, the pegs in column 1 (n=8) were considered the biofilm growth control; these pegs were removed from the lids, placed into 200 μL of recovery medium, and analyzed for starting biofilm cell numbers as described below. The rinsed pegs were placed into new 96-well plates containing two-fold dilutions of antimicrobials such as tetrasodium EDTA (4%-0.0125%), ethanol (100%-0.2%), and chlorhexidine HCl (100 μg/mL-0.4 μg/mL) in 200 μL of suitable biofilm growth medium per well and incubated at optimum temperature for 24 h. After the antimicrobial challenge, the pegs were rinsed twice with sterile PBS for 2 min and placed into a new 96-well plate containing 200 μL of recovery medium. The recovery plates were sealed with Parafilm, and biofilm cells were dislodged from the pegs by sonication for 30 min with a Branson 3510 bath sonicator. The biofilm cells in the recovery medium were serially diluted, and a drop dilution assay was performed to enumerate the viable cells. MBEC values were determined as the minimum concentration of antimicrobials that yielded a viable cell count at or lower than the 125 CFU/mL detection limit.

[12] = test system: Escherichia coli SK2; test: MBEC assay, 48-h biofilm, 24 h exposure; format: cell-based
Experimental: as §3

[13] = test system: Proteus mirabilis ON153; test: MBEC assay, 48-h biofilm, 24 h exposure; format: cell-based
Experimental: as §3

[14] = test system: Pseudomonas aeruginosa SK1; test: MBEC assay, 48-h biofilm, 24 h exposure; format: cell-based
Experimental: as §3

[15] = test system: Staphylococcus aureus ON89; test: MBEC assay, 48-h biofilm, 24 h exposure; format: cell-based
Experimental: as §3

[16] = test system: Staphylococcus epidermidis SK9; test: MBEC assay, 48-h biofilm, 24 h exposure; format: cell-based
Experimental: as §3

[17] = test system: Proteus mirabilis ON153; test: FBEC index, checkerboard on biofilms; format: cell-based; conditions: for biofilm eradication concentration in combination (FBEC): EDTA + ethanol
Experimental: In step (4), microtiter plates are incubated at 37° C. for 24 h. then (6), after incubation, the bacterial and fungal cells were dislodged from the pegs into the recovery medium described above.
Three 10-μL aliquots, for a total of 30 μL from each well of recovery medium, were spotted on MH agar plates and incubated for 24 h at 37° C. […] The FBEC determination is a modification of the FICI.

[18] = test system: 48-h-old biofilms of bacterial and fungal strains; test: MBEC assay, 24-h exposure; format: cell-based; conditions: 24 h of treatment
Experimental: as §3, with “The rinsed pegs were placed into new 96-well plates containing two-fold dilutions of antimicrobials such as tetrasodium EDTA (4%-0.0125%), ethanol (100%-0.2%), and chlorhexidine HCl (100 μg/mL-0.4 μg/mL) in 200 μL of suitable biofilm growth medium per well and incubated at optimum temperature for 24 h.” left out

| Compound | MBC/MFC [2] | MBC/MFC [3] | MBC/MFC [4] | MBC/MFC [5] | MBC/MFC [6] | MBC/MFC [7] | MBC/MFC [8] | MBC/MFC [9] | MBEC [11] | MBEC [12] | MBEC [13] | MBEC [14] | MBEC [15] | MBEC [16] | concentration alone able to eradicate all established biofilms [18] | concentration in combination [1] [% w/v] | microbicidal concentration in combination [10] [% w/v] | biofilm eradication concentration in combination (FBEC) [17] [% w/v] | further results |
| --- | --- | --- | --- | --- | --- | --- | --- | --- | --- | --- | --- | --- | --- | --- | --- | --- | --- | --- | --- |
| [H]/N=C(\N/C(=N/[H])NCCCCCCNC(=N)NC(=N)Nc1ccc(Cl)cc1)Nc1ccc(Cl)cc1 [Chlorhexidine HCl, 1,6-bis(4′-chlorophenylbiguanide) hexane] | 3.125 µg/mL | 0.8 µg/mL | 50 µg/mL | 3.125 µg/mL | 25 µg/mL | 0.8 µg/mL | 0.8 µg/mL | 3.125 µg/mL | 50 µg/mL | 50 µg/mL | 100 µg/mL | 100 µg/mL | 100 µg/mL | 25 µg/mL | 100 µg/mL |  |  |  | Chlorhexidine HCl concentration in combination ([1]; EDTA + chlorhexidine HCl): 0.2 µg/mL; Chlorhexidine HCl microbicidal concentration in combination ([10]; EDTA + chlorhexidine HCl): 1.6 µg/mL; Chlorhexidine HCl biofilm eradication concentration in combination (FBEC) ([17]; EDTA + chlorhexidine HCl): 3.125 µg/mL |
| O=C([O-])CN(CCN(CC(=O)[O-])CC(=O)[O-])CC(=O)[O-].[Na+].[Na+].[Na+].[Na+] [EDTA, tetrasodium EDTA] | 1 % w/v | 1 % w/v | 2 % w/v | 1 % w/v | 2 % w/v | 1 % w/v | 0.5 % w/v | 1 % w/v | 1 % w/v | 2 % w/v | 4 % w/v | 4 % w/v | 4 % w/v | 2 % w/v | 4% | 0.015 | 0.25 | 0.125 | EDTA concentration in combination ([1]; EDTA + chlorhexidine HCl): 0.008 % w/v; EDTA microbicidal concentration in combination ([10]; EDTA + chlorhexidine HCl): 0.031 % w/v; EDTA biofilm eradication concentration in combination (FBEC) ([17]; EDTA + chlorhexidine HCl): 0.125 % w/v |
| CCO [Ethanol, ethanol] | 6.25 % w/v | 25 % w/v | 12.5 % w/v | 12.5 % w/v | 12.5 % w/v | 25 % w/v | 6.25 % w/v | 6.25 % w/v | 12.5 % w/v | 12.5 % w/v | 50 % w/v | 12.5 % w/v | 12.5 % w/v | 12.5 % w/v | 5% | 0.4 | 3.125 | 6.25 |  |
